In patent US7491701B2, “Peptides that bind to HSP90 proteins” (Boys Town National Research Hospital, priority 2004, dated 2009):
Where no end group is shown, it is not given here.

Columns and labels:
[1] = background; cited from earlier work
[2] = background; geldanamycin Phase I clinical trials; cited from earlier work
beta-COP = assay: Binding of beta-COP from mouse brain extract to Sulfolink-peptide affinity matrix, western analysis; conditions: FIG. 1B; for amount of beta-COP binding the peptide matrix: western with antibody to beta-COP; for amount of beta-COP bound by the di-serine control relative to the parent di-lysine peptide matrix: western, 672 BC1 vs OTOF CTERM E47, 670 CC1 vs OTOF CTERM E48
Protocol: Antibody to beta-COP was obtained from Oncogene Research Products (EMD Biosciences, Ind.) (Product No. PC175) and used at a 1:1500 dilution. Antibody to mouse Hsp90α was obtained from Stressgen (Victoria, Canada), Product No. SPS-771 and used at a 1:1000 dilution.
(§1) Sulfolink-peptide affinity columns were synthesized using the Sulpholink Kit (Pierce Biotechnology, Inc., Rockford, Ill., Product No. 44895) according to their protocol. Peptides were stored at 4° C. in a lyophilized state in a sealed desiccator. Approximately 2 mg of peptide is weighed and suspended in 0.4 ml of DMSO. This peptide solution is immediately diluted into 2 ml of coupling buffer and mixed (100 μl is removed for quantization) then added to 4 ml of a 50% slurry of Sulfolink gel equilibrated in coupling buffer in a small plastic column. The combination is mixed for 15 minutes at room temperature by rotation. The mixture is further incubated for 30 minutes at room temperature without mixing. The column is washed with coupling buffer, then blocked with freshly made 0.5 M cysteine, further washed with a Wash buffer. The peptide affinity matrix was removed from the column to a 50 ml conical tube and stored as a 50% slurry in PBS containing 0.05% sodium azide at 4° C.
Total mouse brain from deeply anthesized adult mice is excised and flash frozen in liquid nitrogen and stored at −80° C. The frozen brain is pulverized in a mortar and pestle under liquid nitrogen and suspended in TNGD (TRIS 50 mM pH7.5, NaCl 75 mM, EGTA 10 mM, EDTA 2 mM) with protease inhibitors (10 μl/ml of protease inhibitor cocktail for mammalian cells, Sigma Chemical Co. No. P8340) at 1 ml/100 mg of tissue. This mixture is homogenized in a Potter-Elvehjem Teflon glass homogenizer on ice. The homogenate is centrifuged for 10 minutes at 4° C. in an IEC minifuge at 13,200 RPM. The pellet is discarded. The supernatant is used immediately or frozen and stored at −80° C.
All steps of protein purification were done at 4° C. in a Handee Spin Cup Column (Pierce Biotechnology, Inc., Rockford, Ill., Product No. 69700) in the presence of protease inibitor (10 μl/ml of protease inhibitor cocktail for mammalian cells, Sigma Chemical Co. No. P8340). Fifty μl of a 50% slurry of Sulfolink-peptide was washed five times with 0.4 ml of TNGD. Mouse brain extract supernatant (100 μl) was allowed to absorb to the gel by mixing by rotation for 30 minutes. Following absorption the gel is washed five times with 0.4 ml TNGD. Specific elution is described in the results.
Protein samples are made 1× with ImmunoPure Lane Marker Non-Reducing Sample Buffer (5×) (Pierce Biotechnology) and heated for 5 minutes at 95° C. Samples are separated on a 4-20% Linear Gradient Ready Gel (BIO-RAD Laboratories, Hercules, Calif., Product No. 161-1105). Polyacrylamide gels are stained with BIORAD Silver Stain Plus Kit (No. 161-0449) or Bio-Safe Coomassie Stain or electro-blotted to PVDF membrane (BIO-RAD) for Western blot analysis, according to directions provided by the manufacturer. Specific antibody binding is detected using ECL Western Blotting System (Amersham Biosciences Corp., Piscataway, N.J., Product No. RPN2108). Molecular weight standards used were the BIO-RAD Precision Protein Standards, Prestained, Broad Range (Product No. 161-0372). Chemiluminecence is detected using Kodak Biomax ML Scientific Imaging Film (Product No. 868-9358).
Mouse brain extracts were absorbed to the four peptide matrix columns as described in the methods. Column matrix was transferred to PCR tubes and made 1× with SDS buffer and heated for 5 minutes at 95° C. After heating the samples were centrifuged for 1 minute at 300×g and the supernatant separated by SDS gel electrophoresis on two separate gels.

recombinant human Hsp90α = target: T1, recombinant human Hsp90α (Homo sapiens, UniProt P07900); assay: Binding of purified recombinant human Hsp90α to peptide affinity columns, 600 mM NaCl elution, silver stain; conditions: for binding of Hsp90α to the peptide affinity column: 400 ng recombinant human Hsp90α, BSA-preabsorbed column, 4° C., silver stain, FIG. 5; for protein corresponding to Hsp90 molecular weight eluted with 600 mM NaCl, share of protein added: scan of silver stained gel, elution with TNGD + 600 mM NaCl
T1 construct: purchased Stressgen SPP-776
Protocol: Fifty μl of 50% slurry of OTOF CTERM E47 and OTOF CTERM E48 Sulfolink affinity matrix were equilibrated with four washes of 0.4 ml of TNGD buffer in Handee Spin Cup Columns (Pierce, Rockford). The columns was preabsorbed with 100 μl of 10% BSA for 30 minutes at 4° C. and mixed by rotation. The columns were then washed five times with 0.4 ml of TNGD. Four hundred (400) ng of recombinant human Hsp90α (Stressgen SPP-776, Lot No. B201401) in 100 μl of TNGD was added to each column for 30 minutes at 4° C. and mixed by rotation. The unabsorbed protein was removed by centrifugation. The columns were washed five times with 0.4 ml of TNGD, then eluted with 100 μl TNGD+600 mM NaCl. Samples were analyzed on a 4-20% SDS-PAGE gel followed by silver staining using a BIORAD Silver Stain Plus kit (No. 161-0449) as show in FIG. 5. […] The amount of protein added and eluted was determined by scanning the silver stained gel using a Alpha Imager 2200 gel imaging system.

Hsp90α (p97, HS9A_MOUSE) = target: T2, Hsp90α (p97, HS9A_MOUSE) (Mus musculus, UniProt P07901); assay: Binding of mouse brain extract protein p97 (identified as Hsp90α) to Sulfolink-peptide affinity matrix, SDS-PAGE Coomassie stain; conditions: Coomassie stained gel, FIG. 1A
T2 construct: Total mouse brain from deeply anthesized adult mice is excised and flash frozen in liquid nitrogen; from tissue; host or cells: adult mouse brain, 13,200 rpm supernatant of homogenate
Protocol: as §1, with “The peptide affinity matrix was removed from the column to a 50 ml conical tube and stored as a 50% slurry in PBS containing 0.05% sodium azide at 4° C.” left out
Protein samples are made 1× with ImmunoPure Lane Marker Non-Reducing Sample Buffer (5×) (Pierce Biotechnology) and heated for 5 minutes at 95° C. Samples are separated on a 4-20% Linear Gradient Ready Gel (BIO-RAD Laboratories, Hercules, Calif., Product No. 161-1105). […] Specific antibody binding is detected using ECL Western Blotting System (Amersham Biosciences Corp., Piscataway, N.J., Product No. RPN2108). […] Chemiluminecence is detected using Kodak Biomax ML Scientific Imaging Film (Product No. 868-9358). […]

Row | binding of Hsp90α to the peptide affinity column (recombinant human Hsp90α) | protein corresponding to Hsp90 molecular weight eluted with 600 mM NaCl, share of protein added (recombinant human Hsp90α) | Molecule | water / aqueous solubility [1] | hepatotoxicity [2] | amount of beta-COP binding the peptide matrix (beta-COP) | amount of beta-COP bound by the di-serine control relative to the parent di-lysine peptide matrix (beta-COP) | further results
1 | – | – | C=CCNC1=C2C[C@@H](C)C[C@H](OC)[C@H](O)[C@@H](C)/C=C(\C)[C@H](OC(N)=O)[C@@H](OC)/C=C\C=C(/C)C(=O)NC(=CC1=O)C2=O [Peptide 17-AAG, 17-(allylamino)-17-desmethoxygeldanamycin] | limited aqueous solubility | reduced hepatotoxicity | – | – | –
2 | – | – | COC1=C2C[C@@H](C)C[C@H](OC)[C@H](O)[C@@H](C)/C=C(\C)[C@H](OC(N)=O)[C@@H](OC)/C=C\C=C(/C)C(=O)NC(=CC1=O)C2=O [geldanamycin] | poor water solubility | hepatotoxicity | – | – | –
3 | does not bind | no eluted protein was detected | CYSLPGYLAKKILGA (also: coupled to Sulfolink matrix) [OTOF CTERM E47, C-terminus 14 amino acids of the brain otoferlin isoform with added N-terminal cysteine, coupled to Sulfolink matrix] | – | – | similar | – | amount of beta-COP binding the peptide matrix (beta-COP; listed as E47): specific binding
4 | – | – | CYSLPGYLASSILGA (peptide corresponding to the C-terminus of an otoferlin isoform with di-lysine replaced by di-serine) [672 BC1, E47 peptide control with the di-lysine replaced with di-serine, reference compound] | – | – | – | about half | –
5 | specifically binds | Approximately 10% | CYSLPGYMVKKLLGA (also: coupled to Sulfolink matrix) [OTOF CTERM E48, C-terminus 14 amino acids of the cochlear otoferlin isoform with added N-terminal cysteine, coupled to Sulfolink matrix] | – | – | similar | – | binding of a protein at approximately 97 kilo-daltons (p97, Hsp90α) to the peptide matrix (Hsp90α (p97, HS9A_MOUSE)): higher levels; binding of a protein at approximately 97 kilo-daltons (p97, Hsp90α) to the peptide matrix (Hsp90α (p97, HS9A_MOUSE); listed as E48): specific binding; amount of beta-COP binding the peptide matrix (beta-COP; listed as E48): specific binding
6 | – | – | CYSLPGYMVSSLLGA (peptide corresponding to the C-terminus of an otoferlin isoform with di-lysine replaced by di-serine) [670 CC1, E48 peptide control with the di-lysine replaced with di-serine, reference compound] | – | – | – | about a tenth | –
